Source: patent US7629383B2, “Double esters” (Drug Discovery Laboratory AS, priority 2001, dated 2009)
Where two headings read alike, the source gives them in different places.

Columns and labels:
Staphylococcus aureus = assay: Antibacterial effect on agar gels; type: cell-based; details: same amount (10 mg)
Procedure: The antibacterial effects of azelaic acid and the azelaic acid derivatives of Examples 7, 12 and 13 on Staphylococcus aureus were tested on agar gels.

[1] = cited from earlier work
[2] = Clinical testing of creams, indication skin cancer; type: in vivo, human; details: one person, skin cancer in the face
Procedure: A person with skin cancer in the face (one lesion above the nose) was treated with photodynamic therapy (5-ALA methyl ester, available from Photocure ASA, Oslo, Norway). The outcome of the treatment was very good. After about one year they observed a new lesion in the same area.

Structure (SMILES)	inhibiting zones on agar gel (Staphylococcus aureus)	also measured
O=C(O)CCCCCCCC(=O)O [azelaic acid, nonanedioic acid]	no inhibiting effect	dose absorbed ([1]; administered orally): about 60%; dose absorbed ([1]; administered topically): about 3.6%; absorbed azelaic acid excreted into the urine ([1]; within 12 hours): 60%
CCOC(=O)OC(C)OC(=O)CCCCCCCC(=O)OC(C)OC(=O)OCC (centres unmarked) [Example 7, bis-[1-[ethoxycarbonyloxy]-ethyl]nonanedioate]	large inhibiting zones	–
COC(=O)CCC(=O)CN [5-ALA methyl ester]	–	outcome of photodynamic therapy [2]: very good
CCCC(=O)OCOC(=O)CCCCCCCC(=O)OCOC(=O)CCC [Example 12, bis-(butanoyloxymethyl)nonanedioate]	large inhibiting zones	–
CCCCCC(=O)OCOC(=O)CCCCCCCC(=O)OCOC(=O)CCCCC [Example 13, bis-(hexanoyloxymethyl) nonanedioate]	large inhibiting zones	–
